Test results: publication PMC8907193, “The YΦ motif defines the structure-activity relationships of human 20S proteasome activators” (Nature Communications, 2022)
Square brackets hold non-standard residues; d marks the D form. Ends that are not written are not given here. Peptide text beside a SMILES is read from it. Cha = N[C@@H](CC1CCCCC1)C(=O)O

Columns and labels:
[1] = Visual inspection of 10 mM DMSO stocks (solubility); assay type: physicochemical; conditions: 10 mM in DMSO (Suppl Fig 1e)
[2] = test system: T1, human 20S proteasome (h20S); assay: h20S stimulation, hydrolysis of suc-LLVY-amc (chymotryptic-like activity); assay type: biochemical
T1 construct: purchased Proteasome Center
Method: Human 20S (h20S) (final concentration of 4 nM) was incubated in the presence or absence of activators (peptides, 0.2–600 μM; MBP 0.2–400 μM; PA26, 0.04–3500 nM) at ambient temperature for 5 min. Substrate (suc-LLVY-amc, 10 μM; boc-LRR-amc, 20 μM; or FAM-LFP, 100 nM) was added immediately before reading. Fluorescence intensity of suc-LLVY-amc and boc-LRR-amc (excitation, 355 nm; emission, 440 nm; cutoff 435 nm) or FAM-LFP (excitation, 490 nm; emission, 520 nm; cutoff, 515 nm) were monitored at 30 to 60 s intervals for 30 min at 25 °C using a Spectramax M5 microplate reader (Molecular Devices; SoftMax Pro 6.5.1). The hydrolysis rate was calculated from the slope of the curve between 100 and 500 s (500 and 1000 s for boc-LRR-amc) in arbitrary units (RFU per s).
Data were processed and fit in GraphPad Prism 8.1.2. The baseline hydrolysis was normalized to the total mean activity for the lowest concentration of every activator assayed in a given plate and the maximal hydrolysis was normalized as reported. The normalized activity was plotted relative to log10(activator). Data was fit to the model for log(agonist) versus response (variable slope). In Eq. (1), X = log[activator, μM] except for PA26-based activators, which are in nanomolar.1 Y=Bottom+(Top−Bottom)/1+10^((logEC50−X)×Hillslope)

Molecule | solubility of DMSO stock, visual [1] | improvement of potency relative to Opt5^YY ([2]; ratio of EC50) | stimulation of h20S, result in words ([2]; suc-LLVY-amc turnover)
ANLQYFA [hRpt5-YP2F] | insoluble |  | 
CC(C)C[C@H](NC(=O)[C@@H](N)CC(N)=O)C(=O)N[C@@H](CO)C(=O)N[C@@H](Cc1ccc(O)cc1)C(=O)N[C@@H](CC1CCCCC1)C(=O)N[C@H](C(=O)O)[C@@H](C)O [Opt5^Y4] (H-NLSY[Cha]T-OH; N-terminus and C-terminus assumed) |  | ~ 2 fold | completely inactivated
